Results on 4 compounds are retold here after PMC8550792, “Evolution of kinase polypharmacology across HSP90 drug discovery” (Cell Chemical Biology, 2021).

Common to all, as to experiment: biochemical
What all share (type): biochemical

Assay [1] deals with T1, 382 unique human kinases (Homo sapiens, UniProt Q13873).
T1 construct: purchased Reaction Biology (HotSpot contract assay)
T1 sequence (Q13873 27-1038): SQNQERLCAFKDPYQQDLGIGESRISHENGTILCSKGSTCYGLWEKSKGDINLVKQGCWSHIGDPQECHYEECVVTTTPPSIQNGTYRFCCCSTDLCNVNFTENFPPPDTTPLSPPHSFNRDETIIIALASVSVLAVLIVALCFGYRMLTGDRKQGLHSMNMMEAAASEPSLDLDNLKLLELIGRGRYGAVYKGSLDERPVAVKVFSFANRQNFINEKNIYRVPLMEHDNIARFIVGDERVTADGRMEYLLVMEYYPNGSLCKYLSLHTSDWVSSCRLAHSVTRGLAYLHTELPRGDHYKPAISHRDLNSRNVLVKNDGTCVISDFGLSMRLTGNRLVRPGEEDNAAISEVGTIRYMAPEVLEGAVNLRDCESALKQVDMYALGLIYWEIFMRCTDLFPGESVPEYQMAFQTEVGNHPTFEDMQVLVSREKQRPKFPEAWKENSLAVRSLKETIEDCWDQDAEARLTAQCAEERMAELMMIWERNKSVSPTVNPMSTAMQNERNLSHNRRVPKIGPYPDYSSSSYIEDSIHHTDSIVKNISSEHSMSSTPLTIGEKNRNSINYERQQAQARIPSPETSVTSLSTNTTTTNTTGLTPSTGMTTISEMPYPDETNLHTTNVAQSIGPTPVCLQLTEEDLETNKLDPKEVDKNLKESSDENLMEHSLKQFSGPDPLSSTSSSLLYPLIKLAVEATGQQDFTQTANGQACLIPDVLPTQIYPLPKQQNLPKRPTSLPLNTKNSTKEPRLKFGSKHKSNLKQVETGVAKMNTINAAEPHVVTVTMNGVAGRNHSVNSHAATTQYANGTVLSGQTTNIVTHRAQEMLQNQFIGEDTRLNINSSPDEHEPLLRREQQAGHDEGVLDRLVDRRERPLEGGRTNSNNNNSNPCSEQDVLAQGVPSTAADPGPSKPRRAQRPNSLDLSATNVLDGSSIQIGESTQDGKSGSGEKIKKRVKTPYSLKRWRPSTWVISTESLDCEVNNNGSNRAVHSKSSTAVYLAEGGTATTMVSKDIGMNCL
The note with it: BMPR2, 10 uM; for remaining activity at 10 µM: read-out: % Enzyme Activity (relative to DMSO controls).

Assay [2] deals with T2, 382 unique human kinases (Homo sapiens, UniProt P00533).
T2 construct: purchased Reaction Biology (HotSpot contract assay)
The note with it: EGFR, 10 uM; for remaining activity at 10 µM: read-out: % Enzyme Activity (relative to DMSO controls).

Assay [3] addresses T3, 382 unique human kinases (Homo sapiens, UniProt Q56UN5).
T3 construct: purchased Reaction Biology (HotSpot contract assay)
T3 sequence (Q56UN5 1-1328): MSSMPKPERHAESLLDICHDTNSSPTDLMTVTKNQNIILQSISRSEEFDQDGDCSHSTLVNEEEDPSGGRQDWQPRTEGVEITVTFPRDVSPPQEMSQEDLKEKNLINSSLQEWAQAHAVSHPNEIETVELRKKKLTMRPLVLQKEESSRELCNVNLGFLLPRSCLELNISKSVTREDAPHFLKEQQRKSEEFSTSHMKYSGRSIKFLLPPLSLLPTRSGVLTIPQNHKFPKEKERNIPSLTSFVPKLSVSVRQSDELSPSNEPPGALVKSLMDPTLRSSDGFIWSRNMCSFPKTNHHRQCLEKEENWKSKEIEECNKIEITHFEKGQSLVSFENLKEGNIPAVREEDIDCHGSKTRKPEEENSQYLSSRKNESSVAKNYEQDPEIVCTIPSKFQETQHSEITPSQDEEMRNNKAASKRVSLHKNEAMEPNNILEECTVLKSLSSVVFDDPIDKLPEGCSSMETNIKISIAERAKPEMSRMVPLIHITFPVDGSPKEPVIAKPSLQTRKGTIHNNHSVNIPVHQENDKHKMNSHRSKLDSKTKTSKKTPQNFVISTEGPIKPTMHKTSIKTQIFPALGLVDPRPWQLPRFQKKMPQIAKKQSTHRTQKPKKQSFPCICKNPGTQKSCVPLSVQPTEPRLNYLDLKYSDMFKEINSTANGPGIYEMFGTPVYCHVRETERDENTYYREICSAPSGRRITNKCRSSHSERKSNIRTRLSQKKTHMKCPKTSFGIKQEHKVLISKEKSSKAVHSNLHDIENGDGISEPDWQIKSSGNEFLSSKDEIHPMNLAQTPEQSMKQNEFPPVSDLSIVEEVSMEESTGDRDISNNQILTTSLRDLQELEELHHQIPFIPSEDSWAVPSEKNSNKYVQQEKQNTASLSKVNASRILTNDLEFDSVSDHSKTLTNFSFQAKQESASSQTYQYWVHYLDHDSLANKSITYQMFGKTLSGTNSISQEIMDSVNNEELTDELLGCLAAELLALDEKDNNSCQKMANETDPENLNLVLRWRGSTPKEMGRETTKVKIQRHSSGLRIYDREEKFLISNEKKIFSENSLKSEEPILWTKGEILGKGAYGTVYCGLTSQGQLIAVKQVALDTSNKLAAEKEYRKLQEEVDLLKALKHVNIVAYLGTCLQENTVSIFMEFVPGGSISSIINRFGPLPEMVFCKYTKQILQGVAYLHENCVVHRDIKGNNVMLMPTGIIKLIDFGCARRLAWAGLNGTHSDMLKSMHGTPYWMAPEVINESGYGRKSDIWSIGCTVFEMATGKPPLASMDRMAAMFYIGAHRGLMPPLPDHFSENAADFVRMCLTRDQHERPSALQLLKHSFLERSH
The note with it: kinase YSK4/MAP3K19, compound 10 uM; for remaining activity at 10 µM: read-out: % Enzyme Activity (relative to DMSO controls).

Assay [4] addresses T4, 382 unique human kinases (Homo sapiens, UniProt P06241).
T4 construct: purchased Reaction Biology (HotSpot contract assay)
The note with it: FYN, [ATP] 30 µM.

For assay [5], the target named is T5, 382 unique human kinases (Homo sapiens, UniProt P45983).
T5 construct: purchased Reaction Biology (HotSpot contract assay)
The note with it: JNK1, 10 uM; for remaining activity at 10 µM: read-out: % Enzyme Activity (relative to DMSO controls).

In assay [6] the target is T6, 382 unique human kinases (Homo sapiens, UniProt Q5TCY1).
T6 construct: purchased Reaction Biology (HotSpot contract assay)
The note with it: TTBK1, 10 uM; for remaining activity at 10 µM: read-out: % Enzyme Activity (relative to DMSO controls).

T4 sequence (P06241 whole entry): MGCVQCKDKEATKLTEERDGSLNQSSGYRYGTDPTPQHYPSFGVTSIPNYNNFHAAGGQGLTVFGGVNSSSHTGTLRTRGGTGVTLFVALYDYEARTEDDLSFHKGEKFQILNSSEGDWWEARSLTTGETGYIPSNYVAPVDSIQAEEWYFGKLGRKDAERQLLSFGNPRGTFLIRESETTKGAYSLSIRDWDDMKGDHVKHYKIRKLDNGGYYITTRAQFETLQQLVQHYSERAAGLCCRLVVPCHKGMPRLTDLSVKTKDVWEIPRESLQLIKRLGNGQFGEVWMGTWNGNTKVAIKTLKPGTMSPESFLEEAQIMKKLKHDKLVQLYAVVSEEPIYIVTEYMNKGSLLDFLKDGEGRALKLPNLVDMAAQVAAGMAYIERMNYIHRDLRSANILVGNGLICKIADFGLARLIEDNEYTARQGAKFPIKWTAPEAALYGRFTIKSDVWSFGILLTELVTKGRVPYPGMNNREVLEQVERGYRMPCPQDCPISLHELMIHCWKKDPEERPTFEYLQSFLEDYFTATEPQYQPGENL
T2 sequence (P00533 25-1210): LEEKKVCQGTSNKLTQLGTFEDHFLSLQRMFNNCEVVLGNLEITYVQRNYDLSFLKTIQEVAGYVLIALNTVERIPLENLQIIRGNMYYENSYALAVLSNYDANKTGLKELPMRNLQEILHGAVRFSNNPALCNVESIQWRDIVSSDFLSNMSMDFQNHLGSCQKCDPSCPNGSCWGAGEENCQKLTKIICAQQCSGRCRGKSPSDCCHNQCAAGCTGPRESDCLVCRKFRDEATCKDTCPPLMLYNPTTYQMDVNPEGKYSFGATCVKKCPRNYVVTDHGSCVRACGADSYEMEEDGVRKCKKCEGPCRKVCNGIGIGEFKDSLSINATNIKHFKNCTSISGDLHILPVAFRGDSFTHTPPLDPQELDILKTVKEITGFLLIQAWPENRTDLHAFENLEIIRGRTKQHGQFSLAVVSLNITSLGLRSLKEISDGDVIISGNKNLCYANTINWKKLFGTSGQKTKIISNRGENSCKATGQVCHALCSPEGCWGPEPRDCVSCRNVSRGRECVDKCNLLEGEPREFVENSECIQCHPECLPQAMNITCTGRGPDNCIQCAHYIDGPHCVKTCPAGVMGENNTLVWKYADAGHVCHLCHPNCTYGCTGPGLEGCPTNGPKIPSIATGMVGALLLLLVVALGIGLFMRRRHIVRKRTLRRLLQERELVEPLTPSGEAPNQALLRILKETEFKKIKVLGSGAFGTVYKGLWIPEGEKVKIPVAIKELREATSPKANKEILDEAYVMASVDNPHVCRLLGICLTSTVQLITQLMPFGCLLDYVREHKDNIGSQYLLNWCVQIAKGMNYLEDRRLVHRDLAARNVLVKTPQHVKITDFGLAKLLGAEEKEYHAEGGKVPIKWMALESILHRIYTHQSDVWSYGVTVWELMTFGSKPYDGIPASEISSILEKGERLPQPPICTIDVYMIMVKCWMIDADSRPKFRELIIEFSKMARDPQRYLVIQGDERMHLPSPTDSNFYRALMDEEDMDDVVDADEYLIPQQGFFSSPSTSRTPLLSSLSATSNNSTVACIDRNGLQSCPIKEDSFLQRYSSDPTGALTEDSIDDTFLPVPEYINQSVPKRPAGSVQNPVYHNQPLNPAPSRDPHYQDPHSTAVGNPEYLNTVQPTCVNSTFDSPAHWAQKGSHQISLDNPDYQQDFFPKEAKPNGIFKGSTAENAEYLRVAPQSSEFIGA
T5 sequence (P45983 whole entry): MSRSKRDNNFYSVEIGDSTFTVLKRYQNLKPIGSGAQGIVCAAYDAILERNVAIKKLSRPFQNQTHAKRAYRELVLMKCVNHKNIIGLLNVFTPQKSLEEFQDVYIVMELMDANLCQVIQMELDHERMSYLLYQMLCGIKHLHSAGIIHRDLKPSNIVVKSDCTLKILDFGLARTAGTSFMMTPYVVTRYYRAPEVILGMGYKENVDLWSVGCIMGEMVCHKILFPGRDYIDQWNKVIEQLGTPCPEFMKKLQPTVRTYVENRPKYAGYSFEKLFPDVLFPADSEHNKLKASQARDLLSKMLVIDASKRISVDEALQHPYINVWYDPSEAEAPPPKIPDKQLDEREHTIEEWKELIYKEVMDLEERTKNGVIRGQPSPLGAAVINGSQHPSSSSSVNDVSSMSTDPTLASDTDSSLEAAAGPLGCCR
T6 sequence (Q5TCY1 whole entry): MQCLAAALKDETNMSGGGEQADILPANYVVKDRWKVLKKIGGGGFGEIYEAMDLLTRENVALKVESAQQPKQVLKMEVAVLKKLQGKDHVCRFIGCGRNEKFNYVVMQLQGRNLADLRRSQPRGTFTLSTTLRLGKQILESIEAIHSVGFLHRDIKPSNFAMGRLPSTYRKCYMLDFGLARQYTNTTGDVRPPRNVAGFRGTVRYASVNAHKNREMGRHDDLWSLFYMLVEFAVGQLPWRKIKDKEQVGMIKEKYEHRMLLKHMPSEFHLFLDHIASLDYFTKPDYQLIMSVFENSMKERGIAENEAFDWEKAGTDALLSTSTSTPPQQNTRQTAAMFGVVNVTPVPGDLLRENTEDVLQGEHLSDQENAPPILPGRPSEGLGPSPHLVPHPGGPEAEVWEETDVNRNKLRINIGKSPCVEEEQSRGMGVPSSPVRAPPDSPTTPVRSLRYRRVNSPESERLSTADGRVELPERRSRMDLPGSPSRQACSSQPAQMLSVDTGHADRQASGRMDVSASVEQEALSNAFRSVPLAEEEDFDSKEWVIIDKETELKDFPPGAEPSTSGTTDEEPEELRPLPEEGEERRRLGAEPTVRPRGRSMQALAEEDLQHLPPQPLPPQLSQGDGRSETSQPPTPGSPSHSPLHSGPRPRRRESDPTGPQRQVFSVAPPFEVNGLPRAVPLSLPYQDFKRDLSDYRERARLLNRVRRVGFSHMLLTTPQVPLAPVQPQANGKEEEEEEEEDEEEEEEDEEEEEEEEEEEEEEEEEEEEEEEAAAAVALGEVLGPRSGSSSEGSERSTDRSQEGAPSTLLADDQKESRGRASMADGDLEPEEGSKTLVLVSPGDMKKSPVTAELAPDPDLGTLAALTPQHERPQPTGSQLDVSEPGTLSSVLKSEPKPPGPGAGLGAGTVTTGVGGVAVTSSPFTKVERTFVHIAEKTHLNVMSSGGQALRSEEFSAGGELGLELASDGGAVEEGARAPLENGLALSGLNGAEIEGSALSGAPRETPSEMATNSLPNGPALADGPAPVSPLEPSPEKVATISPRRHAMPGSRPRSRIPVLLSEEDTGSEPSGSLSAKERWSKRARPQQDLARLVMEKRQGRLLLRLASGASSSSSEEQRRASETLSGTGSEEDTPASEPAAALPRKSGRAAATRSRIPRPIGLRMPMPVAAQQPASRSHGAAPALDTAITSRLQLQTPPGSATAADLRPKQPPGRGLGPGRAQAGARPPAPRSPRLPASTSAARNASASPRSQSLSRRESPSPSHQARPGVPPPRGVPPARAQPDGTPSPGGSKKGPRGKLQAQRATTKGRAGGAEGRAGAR

For the compound `CC(C)c1cc(-c2n[nH]c(=O)n2-c2ccc3c(ccn3C)c2)c(O)cc1O` [Ganetespib (STA9090)], the remaining activity at 10 µM at 382 unique human kinases [1] amounted to 65.3%; at 382 unique human kinases [2], 76%; at 382 unique human kinases [3], 85.8%.
As to `CC(C)c1cc(-c2n[nH]c(=O)n2-c2ccc3c(ccn3C)c2)c(O)cc1O` [Ganetespib], on 382 unique human kinases [4] (compound 1 uM, read-out: % Enzyme Activity (relative to DMSO controls)), the remaining activity at 1 µM was found to be 47.6%. Moreover, the remaining activity at 10 µM amounted to 99.3% at 382 unique human kinases [5] and 101% on 382 unique human kinases [6].
As for `CCNC(=O)c1noc(-c2cc(C(C)C)c(O)cc2O)c1-c1ccc(CN2CCOCC2)cc1` [Luminespib (AUY-922)], the “% Enzyme Activity (relative to DMSO controls)” value on 382 unique human kinases [1] is on record as 104.76%; at 382 unique human kinases [2] it was 93.47%; on 382 unique human kinases [3], 85.23%. The figures for the remaining activity at 10 µM on 382 unique human kinases [1], on 382 unique human kinases [2] and at 382 unique human kinases [3] were 108%, 95.1% and 88.7%, respectively.
As for `CCNC(=O)c1noc(-c2cc(C(C)C)c(O)cc2O)c1-c1ccc(CN2CCOCC2)cc1` [Luminespib], the “% Enzyme Activity (relative to DMSO controls)” value on 382 unique human kinases [4] (compound 10 uM) came out at 65.29%; at 382 unique human kinases [5], 101.32%; on 382 unique human kinases [6] it was 109.07%. The remaining activity at 10 µM at 382 unique human kinases [4] (compound 10 uM, read-out: % Enzyme Activity (relative to DMSO controls)) turned out to be 65.6%; on 382 unique human kinases [5] it was 103%; on 382 unique human kinases [6], 109%.
